# Data published in patent US20230025067A1, “SOLID LOW FOAMING IN DISSOLUTION AND LOW PH ALL-PURPOSE CLEANER AND DISINFECTANT COMPOSITIONS” (Reckitt Benckiser LLC, priority 2021, published 2023).
# Assays:
# [1] = Tableting and stability of R&D formulations with other citric acid grades; assay type: physicochemical; conditions: R&D formulations similar to Formula E1
# germ = assay: R&D germ kill testing of aqueous citric acid solutions; assay type: cell-based; conditions: aqueous solutions containing 2.5% w/v
# Excerpt: As discussed above, lemon juice contains 5-8% citric acid, amongst other potentially disinfecting ingredients like malic acid, ascorbic acid, and essential oils.
# Staphyloccocus aureus = conditions: 1 mg/mL solution in a 20% dimethyl sulfoxide water solution; cited from earlier work
Structure (SMILES),"suitability for tablet formulation (hygroscopicity, tableting) [1]",germ kill results (germ),activity against Staphyloccocus aureus (Staphyloccocus aureus)
"O=C(O)CC(O)(CC(=O)O)C(=O)O [Citric acid anhydrous, citric acid anhydrous]",too hygroscopic for use in a tablet formulation,,
O=C(O)CC(O)(CC(=O)O)C(=O)O [citric acid],,did not produce consistent or satisfactory germ kill results,inactive
